ChEMBL document CHEMBL1201862, “PubChem BioAssay data set” (2004)
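Protocol summary: plate cells (96-well), add compound at 5 concentrations, incubate 48 h, interpolate endpoints linearly. GI50 marks 50% less growth.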 Calls of active or inactive are those of the source. No stated cut-off is given here; in the data, active = GI50 up to about 1.1 µM and inactive = higher.

Legend:
Assay in all cases: NCI tumour cell line growth inhibition, 48 h
[1] = test system: SK-MEL-2
[2] = test system: LOX IMVI
[3] = test system: HL-60
[4] = test system: SW-620
[5] = test system: A549
[6] = test system: OVCAR-8
[7] = test system: SK-MEL-28
[8] = test system: COLO 205
[9] = test system: HCT-116
[10] = test system: NCI-H23
[11] = test system: SF-295
[12] = test system: MDA-MB-231
[13] = test system: TK-10
[14] = test system: T47D
[15] = test system: MDA-N
[16] = test system: NCI-H522
[17] = test system: SK-MEL-5
[18] = test system: 786-0
[19] = test system: PC-3
[20] = test system: IGROV-1

| SMILES | GI50 [1] | GI50 [2] | GI50 [3] | GI50 [4] | GI50 [5] | GI50 [6] | GI50 [7] | GI50 [8] | GI50 [9] | GI50 [10] | GI50 [11] | GI50 [12] | GI50 [13] | GI50 [14] | GI50 [15] | GI50 [16] | GI50 [17] | GI50 [18] | GI50 [19] | GI50 [20] |
| --- | --- | --- | --- | --- | --- | --- | --- | --- | --- | --- | --- | --- | --- | --- | --- | --- | --- | --- | --- | --- |
| CCOC(=O)n1c2ccccc2c2c(O)c(OC)c3c(c21)C(=O)NC3=O | > 100 µM (inactive) | 15.2 µM (inactive) | 20.7 µM (inactive) | 35.5 µM (inactive) | 38.5 µM (inactive) | 31.8 µM (inactive) | > 100 µM (inactive) | 21.4 µM (inactive) | 20.1 µM (inactive) | 52.5 µM (inactive) | 75.3 µM (inactive) | 20.6 µM (inactive) | 52.1 µM (inactive) | 95.1 µM (inactive) | > 100 µM (inactive) | 22.6 µM (inactive) | 37.1 µM (inactive) | 19.5 µM (inactive) | 45.8 µM (inactive) | 14.7 µM (inactive) |
| COc1cc([N+](=O)[O-])ccc1NC(=O)C(F)(F)F | > 100 µM (inactive) | > 100 µM (inactive) | > 100 µM (inactive) | > 100 µM (inactive) | > 100 µM (inactive) | > 100 µM (inactive) | > 100 µM (inactive) | > 100 µM (inactive) | > 100 µM (inactive) | > 100 µM (inactive) | > 100 µM (inactive) | > 100 µM (inactive) | > 100 µM (inactive) | 97.7 µM (inactive) | > 100 µM (inactive) | 80.7 µM (inactive) | > 100 µM (inactive) | > 100 µM (inactive) | > 100 µM (inactive) | > 100 µM (inactive) |
| CC[C@@]1(O)C[C@H](OC2CC(N(C)C)C(O)C(C)O2)c2c(O)c3c(c(O)c2[C@H]1OC1CC(N(C)C)C(O)C(C)O1)C(=O)c1cccc(O)c1C3=O (stereo partly drawn) | 0.0227 µM (active) | 0.0208 µM (active) | 0.0869 µM (active) | 0.0378 µM (active) | 0.0306 µM (active) | 0.0274 µM (active) | 0.0373 µM (active) | 0.0321 µM (active) | 0.0247 µM (active) | 0.057 µM (active) | 0.04 µM (active) | 0.0341 µM (active) | 0.0473 µM (active) | 0.06 µM (active) | 0.0363 µM (active) | 0.0144 µM (active) | 0.0323 µM (active) | 0.0196 µM (active) | 0.0361 µM (active) | 0.0706 µM (active) |
| COc1cc([N+](=O)[O-])c(S(=O)(=O)O)cc1N | > 100 µM (inactive) | > 100 µM (inactive) | > 100 µM (inactive) | > 100 µM (inactive) | > 100 µM (inactive) | > 100 µM (inactive) | > 100 µM (inactive) | > 100 µM (inactive) | > 100 µM (inactive) | > 100 µM (inactive) | – | > 100 µM (inactive) | > 100 µM (inactive) | > 100 µM (inactive) | > 100 µM (inactive) | > 100 µM (inactive) | > 100 µM (inactive) | > 100 µM (inactive) | > 100 µM (inactive) | > 100 µM (inactive) |
| NS(=O)(=O)c1ccc(NC2(C(=O)O)CCCC2)cc1 | > 100 µM (inactive) | > 100 µM (inactive) | > 100 µM (inactive) | > 100 µM (inactive) | > 100 µM (inactive) | > 100 µM (inactive) | > 100 µM (inactive) | > 100 µM (inactive) | > 100 µM (inactive) | > 100 µM (inactive) | > 100 µM (inactive) | > 100 µM (inactive) | > 100 µM (inactive) | > 100 µM (inactive) | > 100 µM (inactive) | > 100 µM (inactive) | > 100 µM (inactive) | > 100 µM (inactive) | > 100 µM (inactive) | > 100 µM (inactive) |
| Cc1noc(/N=C2\C=C(O)C(=O)c3ccccc32)c1C | 0.251 µM (active) | 2.14 µM (inactive) | 0.516 µM (active) | – | 5.31 µM (inactive) | 7.38 µM (inactive) | 58.1 µM (inactive) | 31.5 µM (inactive) | 1.69 µM (inactive) | 3.47 µM (inactive) | 11.1 µM (inactive) | 11.6 µM (inactive) | > 100 µM (inactive) | 33.3 µM (inactive) | 0.173 µM (active) | 0.274 µM (active) | 0.676 µM (active) | 21.2 µM (inactive) | 16.4 µM (inactive) | 10 µM (inactive) |
| N#Cc1cnn2ccn(C3OC(COC(=O)c4ccccc4)C(OC(=O)c4ccccc4)C3OC(=O)c3ccccc3)c12 (stereo not drawn) | – | > 31.6 µM (inactive) | > 21.5 µM (inactive) | > 21.5 µM (inactive) | > 21.5 µM (inactive) | > 46.5 µM (inactive) | > 21.5 µM (inactive) | > 21.5 µM (inactive) | > 21.5 µM (inactive) | > 21.5 µM (inactive) | > 21.5 µM (inactive) | > 21.5 µM (inactive) | > 31.6 µM (inactive) | 19.1 µM (inactive) | > 21.5 µM (inactive) | > 21.5 µM (inactive) | > 21.5 µM (inactive) | > 21.5 µM (inactive) | 5.56 µM (inactive) | > 21.5 µM (inactive) |
| S=C(N/N=C(/c1ccccc1)c1ccccn1)N1CCCCCC1 | 0.489 µM (active) | – | < 0.0103 µM (active) | < 0.0214 µM (active) | < 0.0371 µM (active) | < 0.0256 µM (active) | – | < 0.018 µM (active) | 0.01 µM (active) | 0.0538 µM (active) | < 0.0374 µM (active) | 0.01 µM (active) | 0.112 µM (active) | 0.0843 µM (active) | < 0.044 µM (active) | 0.0731 µM (active) | < 0.0228 µM (active) | < 0.0265 µM (active) | < 0.0198 µM (active) | < 0.0198 µM (active) |
| N#CC1=C(N)OC(c2cccc([N+](=O)[O-])c2)C1(C#N)C#N (stereo not drawn) | 21.3 µM (inactive) | 15.1 µM (inactive) | 11.9 µM (inactive) | > 10 µM (inactive) | 34.8 µM (inactive) | 29.4 µM (inactive) | – | 17 µM (inactive) | 15.2 µM (inactive) | 21.2 µM (inactive) | 26.5 µM (inactive) | > 10 µM (inactive) | 19.1 µM (inactive) | 17.4 µM (inactive) | 23.9 µM (inactive) | 14.2 µM (inactive) | 18 µM (inactive) | 14.9 µM (inactive) | 23.7 µM (inactive) | 17.6 µM (inactive) |
| CCOc1c(OC)cc(CNNc2nccs2)cc1OC | – | 47.2 µM (inactive) | 13.4 µM (inactive) | > 100 µM (inactive) | 60 µM (inactive) | > 100 µM (inactive) | > 100 µM (inactive) | 51.4 µM (inactive) | > 100 µM (inactive) | 62.4 µM (inactive) | > 100 µM (inactive) | 94.2 µM (inactive) | > 100 µM (inactive) | 11.7 µM (inactive) | > 100 µM (inactive) | 52.6 µM (inactive) | 12.9 µM (inactive) | > 100 µM (inactive) | 41.9 µM (inactive) | > 100 µM (inactive) |
